Key:
Echinochloa crus-galli = experiment: Pre-emergence soil spray pot test, herbicidal activity (Example 3); assay type: in vivo; settings: scale 0 to 100; 2 g/ha; soil spray on day of sowing; twenty days after spray treatment; greenhouse
Method: (§1) Echinochloa crus-galli was sowed on a plastic pot filled with a soil. Following the sowing, on the day of the sowing, a mixed liquid of flumioxazin, isoxaflutole, and cyprosulfamide was sprayed uniformly so that the amounts of the agents might become those shown in Table 3 in a sprayed water amount of 500 L/ha. The mixed liquid of flumioxazin, isoxaflutole, and cyprosulfamide was prepared by dissolving the respective compounds in prescribed amounts separately in acetone containing 2% (w/v) of Tween 20 (surfactant, produced by Tokyo Chemical Industry Co., Ltd.), diluting the respective solutions with water and then combining them, followed by dilution with water so that the final acetone concentration of the spray liquid might be 10% by volume. After the spray treatment, the pot was carried into a greenhouse. Twenty days after the spray treatment, the herbicidal activity to Echinochloa crus-galli was evaluated.

Ipomoea hederacea = experiment: Pre-emergence soil spray pot test, herbicidal activity (Example 2); assay type: in vivo; settings: scale 0 to 100; 20 g/ha; soil spray on day of sowing; ten days after spray treatment; greenhouse
Method: as §1, with “Ipomoea hederacea” for “Echinochloa crus-galli”, “2” for “3”, “Ten” for “Twenty”

Which “Herbicidal activity Echinochloa crus-galli” value (Echinochloa crus-galli) does the source give for `C#CCN1C(=O)COc2cc(F)c(N3C(=O)C4=C(CCCC4)C3=O)cc21` [Flumioxazin] here?
The value was 10.

And the “Herbicidal activity Ipomoea hederacea” value (Ipomoea hederacea)?
The value was 80.

Reference: patent publication US8921268B2, “Herbicidal composition” (Sumitomo Chemical Company, Limited, priority 2012, dated 2014)
